Strand notation (5' to 3'): a small letter for the sugar, then the base; units joined by * are phosphorothioate-linked, units joined directly phosphodiester-linked; [ ] holds rarer units or linkages, { } end groups; capitals alone tell only the bases. d = 2'-deoxy (DNA)

The data set deals with human Cellular Inhibitor of Apoptosis-1 RNA. The experiment in a line: Inhibition of Cellular Inhibitor of Apoptosis-1 mRNA levels by quantitative real-time PCR after oligonucleotide treatment of cells. The data set is classed as cell-based. The settings on record: phosphorothioate oligodeoxynucleotides; oligonucleotide at final concentration of 150 nM with LIPOFECTIN; real-time PCR; averages from three experiments. As to the method:
Cells were harvested 16 hours after oligonucleotide treatment.
Poly(A)+ mRNA was isolated according to Miura et al., Clin. Chem., 1996, 42, 1758-1764. Other methods for poly(A)+ mRNA isolation are taught in, for example, Ausubel, F. M. et al., Current Protocols in Molecular Biology, Volume 1, pp. 4.5.1-4.5.3, John Wiley & Sons, Inc., 1993. […] 60 μL lysis buffer (10 mM Tris-HCl, pH 7.6, 1 mM EDTA, 0.5 M NaCl, 0.5% NP-40, 20 mM vanadyl-ribonucleoside complex) was added to each well, the plate was gently agitated and then incubated at room temperature for five minutes. 55 μL of lysate was transferred to Oligo d(T) coated 96-well plates (AGCT Inc., Irvine Calif.). Plates were incubated for 60 minutes at room temperature, washed 3 times with 200 μL of wash buffer (10 mM Tris-HCl pH 7.6, 1 mM EDTA, 0.3 M NaCl). After the final wash, the plate was blotted on paper towels to remove excess wash buffer and then air-dried for 5 minutes. 60 μL of elution buffer (5 mM Tris-HCl pH 7.6), preheated to 70° C. was added to each well, the plate was incubated on a 90° C. hot plate for 5 minutes, and the eluate was then transferred to a fresh 96-well plate.
Cellular Inhibitor of Apoptosis-1 probes and primers were designed to hybridize to the human Cellular Inhibitor of Apoptosis-1 sequence, using published sequence information (GenBank accession number U37547, incorporated herein as SEQ ID NO:1).
For Cellular Inhibitor of Apoptosis-1 the PCR primers were: […]
Target sites are indicated by nucleotide numbers, as given in the sequence source reference (Genbank accession no. U37547), to which the oligonucleotide binds. All compounds in Table 1 are oligodeoxynucleotides with phosphorothioate backbones (internucleoside linkages) throughout. […] Data are averages from three experiments. If present, “N.D.” indicates “no data”.
In general terms: Real-time PCR tracks product formation cycle by cycle.
“ISIS 23352: phosphorothioate oligodeoxynucleotide ccagattctgaataaagc, Coding target site 1491 (antisense dC*dC*dA*dG*dA*dT*dT*dC*dT*dG*dA*dA*dT*dA*dA*dA*dG*dC)”: the “% Inhibition of Cellular Inhibitor of Apoptosis-1 mRNA levels” value (“% Inhibition” for short) amounted to 0%. For “ISIS 23356: phosphorothioate oligodeoxynucleotide tagaattaagagggtttg, Coding target site 1632 (antisense dT*dA*dG*dA*dA*dT*dT*dA*dA*dG*dA*dG*dG*dG*dT*dT*dT*dG)”, the “% Inhibition” value came to 0%. Under “ISIS 23361: phosphorothioate oligodeoxynucleotide taccttgaatctcatcaa, Coding target site 2193 (antisense dT*dA*dC*dC*dT*dT*dG*dA*dA*dT*dC*dT*dC*dA*dT*dC*dA*dA)” stands 0%. Then “ISIS 23334: phosphorothioate oligodeoxynucleotide ctagtgttatcagaaacg, 5′ UTR target site 139 (antisense dC*dT*dA*dG*dT*dG*dT*dT*dA*dT*dC*dA*dG*dA*dA*dA*dC*dG)”, with 0%. On to “ISIS 23339: phosphorothioate oligodeoxynucleotide aagtcaatacccacaagc, 5′ UTR target site 497 (antisense dA*dA*dG*dT*dC*dA*dA*dT*dA*dC*dC*dC*dA*dC*dA*dA*dG*dC)”, for which the “% Inhibition” value was 0%. Then “ISIS 23362: phosphorothioate oligodeoxynucleotide ataattggtgggtcagca, Coding target site 2269 (antisense dA*dT*dA*dA*dT*dT*dG*dG*dT*dG*dG*dG*dT*dC*dA*dG*dC*dA)”, with 0%. Under “ISIS 23344: phosphorothioate oligodeoxynucleotide tgccttttatttatattt, 5′ UTR target site 764 (antisense dT*dG*dC*dC*dT*dT*dT*dT*dA*dT*dT*dT*dA*dT*dA*dT*dT*dT)” stands 0%; under “ISIS 23343: phosphorothioate oligodeoxynucleotide ataacagaccaattactg, 5′ UTR target site 724 (antisense dA*dT*dA*dA*dC*dA*dG*dA*dC*dC*dA*dA*dT*dT*dA*dC*dT*dG)”, 0%; under “ISIS 23354: phosphorothioate oligodeoxynucleotide ccaaggtgggagataatg, Coding target site 1572 (antisense dC*dC*dA*dA*dG*dG*dT*dG*dG*dG*dA*dG*dA*dT*dA*dA*dT*dG)”, 3%. Under “ISIS 23363: phosphorothioate oligodeoxynucleotide ttttactttgaactgttt, Coding target site 2391 (antisense dT*dT*dT*dT*dA*dC*dT*dT*dT*dG*dA*dA*dC*dT*dG*dT*dT*dT)” stands 0%; under “ISIS 23348: phosphorothioate oligodeoxynucleotide tttcttcacatgaactaa, 5′ UTR target site 1097 (antisense dT*dT*dT*dC*dT*dT*dC*dA*dC*dA*dT*dG*dA*dA*dC*dT*dA*dA)”, 0%; under “ISIS 23367: phosphorothioate oligodeoxynucleotide gaccacaaggaataaata, Coding target site 2904 (antisense dG*dA*dC*dC*dA*dC*dA*dA*dG*dG*dA*dA*dT*dA*dA*dA*dT*dA)”, 0%.

Source of the values: patent US20040009599A1, “Antisense modulation of cellular inhibitor of apoptosis-1 expression” (priority 1998, published 2004).
